Measured values as given in publication PMC9936582, “Sulfamate Acetamides as Self-Immolative Electrophiles for Covalent Ligand-Directed Release Chemistry” (Journal of the American Chemical Society, 2023).

What was measured:
Buffer stability assay = assay type: physicochemical
Procedure: Reaction mixtures were kept at 37 °C with shaking. After 4 days (unless otherwise mentioned), 5 μL from the reaction mixture were injected into the LC/MS to check the stability of the compounds.

Pin1 [1] = biological target: T1, Pin1 (Homo sapiens, UniProt Q13526); test: Intact protein MS labeling of Pin1; assay type: binding; details: 2 μM Pin1, 2 μM compound, pH 7.5, 1 h, 25 °C
T1 construct: The catalytic domain of Pin1 (2 μM) in […] and 75 mM NaCl (pH 7.5) was incubated; made in house
T1 sequence (Q13526 52-163 limits assumed): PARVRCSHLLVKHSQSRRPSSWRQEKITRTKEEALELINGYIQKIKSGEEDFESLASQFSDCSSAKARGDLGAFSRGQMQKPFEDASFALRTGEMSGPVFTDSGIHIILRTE
Procedure: Initially, we incubated these compounds (4a–4g; 2 μM) with Pin1 (2 μM; 50 mM Tris buffer; pH 7.5, 1 h; 25 °C) to check covalent labeling by intact protein MS (Figure 5B,C; Figure S23). Under these conditions, sulfopin labeled 59% as previously reported;[38] the sulfonate (4a) labeled 18%, whereas alkyl sulfamates (4b and 4c) labeled 16 and 56%, respectively. […] We have previously reported that replacing the tert-butyl group in sulfopin by a cyclohexyl increases the labeling along with intrinsic thiol reactivity. Compound 4g contains a cyclohexyl group instead of the tert-butyl and a phenyl sulfamate electrophile and was able to label >95% of Pin1 under these conditions.
Pin1 was expressed and purified as previously reported.[38] The catalytic domain of Pin1 (2 μM) in […] and 75 mM NaCl (pH 7.5) was incubated with 2 μM sulfopin sulfamate (4a–4g) for 1 h at 25 °C.
The reaction mixtures, at room temperature for various times, were injected into the LC/MS. For data analysis, the raw spectra were deconvoluted using a 20,000:40,000 Da (For Pin1, 10,000:30,000) window and 1 Da resolution. The labeling percentage for a compound was determined as the labeling of a specific compound (alone or together with other compounds) divided by the overall detected protein species.

Pin1 [2] = biological target: T1, Pin1; test: Determination of KI and Kinact for Pin1; assay type: binding; details: Pin1 0.5 μM, 100 mM Tris buffer pH 7.4, 14 °C
Procedure: intensities. Ratios that were above 20 or infinite (due to the sum being zero for the low intensities) were defined as 20. Intensities measured for different peptides containing the same modified cysteine were […]
Pin 1 (500 nM) was incubated at various concentrations of Sulfopin (0.5, 1, 2, 5, 20, 50, 100, 150, […]
in 100 mM Tris buffer at pH 7.4. After the addition, the samples are put at 14 °C. The reaction mixtures, at various time points (indicated in the graph), were injected into the LC/MS. For data analysis, the raw spectra were deconvoluted using a 10000:30000 Da window and 1 Da resolution. The labeling percentage for a compound was determined as the labeling of a specific compound (alone or together with other compounds) divided by the overall detected protein species. The % of unlabelled Pin 1 was plotted against time and fitted to the pseudo-first-order reaction kinetics formula (Figure S24A & C). The obtained rate constants were fitted to the Michaelis-Menten-type saturation curve (Fig. S24B & D) to extrapolate kinact and KI.

PATU-8988T cells = test: Competitive isoDTB-ABPP in PATU-8988T cells; assay type: cell-based, human; design: dose or concentration left out as unconfirmed; details: 4 h
Procedure: Using our previously reported sulfopin-DTB probe[38] (Figure S29A), we evaluated the cellular engagement of these compounds with Pin1 in OCI-AML2 cells. Compounds 4c, 4d, 4e, and 4g and sulfopin were incubated in OCI-AML2 cells (0.5 and 2.5 μM) followed by lysis and treatment with sulfopin-DTB (1 μM). The lysates were pulled down using streptavidin beads, and Pin1 was imaged by Western blot. […] At 0.5 μM, all of these compounds show only ∼30% Pin1 engagement. […] Both sulfopin and 4d labeled only six peptides with an H/L ratio of >2. […]
The preparation of IsoDTB-ABPP samples was performed essentially as described in Zanon et al.2.
Experiments were conducted in quadruplicates. PATU cells were incubated for 2 h with 5 µM compounds Sulfopin or 3g (or with DMSO), and collected by centrifuge at 300 g for 5 min followed by ice cold PBS wash. For lysis, samples containing 10 million cells were dispersed in 0.5 mL of RIPA buffer (Sigma, R0278), incubated with occasional vortexing for 30 min on ice, followed by centrifugation at 21,000 g for 15 min. […]
sample was diluted to 1.7 mg/mL using PBS. To each sample, 5 µL of 10 mM IA-alkyne was added, followed by 1 h incubation at room temperature in the dark. 10 µL of 5 mM DesThioTag was added (Light for the compound treated samples, heavy for the DMSO-treated samples), followed by 18 µL of CuSO4:THPTA (100 mM), and the click reaction was initiated by addition of 15 µL of 150 mM sodium ascorbate (freshly dissolved in water). The samples were incubated on a rotary shaker for 1 h at room temperature. The compound-treated and DMSO-treated samples were mixed with 4 mL methanol, 1 mL chloroform and 2 mL water on ice, vortexed and centriduged at 3200 g for 10 min at 4°C. The top layer was aspirated, and 3 mL methanol was added, followed by centrifugation and aspiration of the supernatant. The pellets were air dried and stored at -80°C until the following treatment. The pellets were resuspended in 0.3 mL of 8 M urea freshly dissolved in PBS using probe sonication (8 sec total at 40% amplitude, 1 sec on/2 sec off, at room temperature). Following the resuspension, the samples were diluted with 1 mL of PBS. Then each sample was mixed with 1.3 mL of slurry containing 110 µL of streptavidin agarose beads (Thermo Streptavidin Agarose cat # 20349), prewashed, and dispersed in 0.2% IGEPAL. The samples were incubated with rotation for 3 h at room temperature. The beads were pelleted by centrifugation at 2000 g for 2 min, transferred to spin columns, and washed 3 times with 0.1% IGEPAL/PBS, 3 times PBS, and 3 times water.
The beads were then suspended in 8 M Urea/50 mM ammonium bicarbonate, and 15 µL of 31 mg/mL DTT were added, followed by incubation at 37°C for 45 min. […]

[3] = Metabolic stability of sulfopin analogues in liver microsomes; assay type: in vitro ADME
Procedure: Next, we examined the buffer stability of the sulfopin sulfamate acetamides in PBS buffer (pH 8; 37 °C). Similar to the model compounds, the chloroacetamide (sulfopin) and sulfonate (4a) warheads show 30 and 15% hydrolysis after 2 days, respectively (Figure S26).
Figure S27: Sulfopin sulfamates show high metabolic stability: Compounds (Sulfopin, 4d, and 4g) were incubated
in liver microsomes and injected to LC/MS/MS at indicated time points. The peak intensities of the compounds were […]

[4] = DTNB thiol reactivity assay; assay type: physicochemical
Procedure: The compound 5,5′-dithio-bis(2-nitrobenzoic acid) (DTNB; 50 μM) was incubated with 200 μM tris(2-carboxyethyl)phosphine (TCEP) in 20 mM sodium phosphate buffer (pH 7.4) and 150 mM NaCl for 5 min at room temperature to obtain TNB^–2. […] UV absorbance was acquired every 15 min for 7 h. The assay was performed in a 384-well plate using a Tecan Spark 10 M plate reader. […] Compounds were measured in triplicate. The data were fitted to a second-order reaction equation such that the rate constant (K) is the slope of ln([A][B0]/[B][A0]), where [A0] and [B0] are the initial concentrations of the compound (200 μM) and TNB^–2 (100 μM), respectively, and [A] and [B] are the remaining concentrations as a function of time as deduced from spectrometric measurements. Linear regression using Prism was performed to fit the rate against the first 7 h of measurements.

[5] = GSH consumption assay (LC/MS); details: 100 μM compound, 5 mM GSH, same conditions as ibrutinib
Procedure: A sample from the reaction mixture was injected to an LC/MS every hour, and we quantified the decrease in starting material over the course of the reaction.
All solvents were bubbled with argon. Reaction mixtures were kept at 10 °C. Every 1 h, 5 μL from the reaction mixture were injected into the LC/MS. The reaction was followed by the peak area of the electrophile normalized by the area of the 4-nitrocyano benzene (i.e., by the disappearance of the starting material). The natural logarithm of the results was fitted to linear regression, and t1/2 was calculated as t1/2 = ln 2/–slope.

BTK [6] = biological target: T2, BTK (Homo sapiens, UniProt Q06187); test: BTK activity (autophosphorylation) in Mino cells, Western blot; assay type: cell-based; design: endogenous in cells; host or cells: Mino cells; details: anti-human IgM activation
T2 sequence (Q06187 whole entry): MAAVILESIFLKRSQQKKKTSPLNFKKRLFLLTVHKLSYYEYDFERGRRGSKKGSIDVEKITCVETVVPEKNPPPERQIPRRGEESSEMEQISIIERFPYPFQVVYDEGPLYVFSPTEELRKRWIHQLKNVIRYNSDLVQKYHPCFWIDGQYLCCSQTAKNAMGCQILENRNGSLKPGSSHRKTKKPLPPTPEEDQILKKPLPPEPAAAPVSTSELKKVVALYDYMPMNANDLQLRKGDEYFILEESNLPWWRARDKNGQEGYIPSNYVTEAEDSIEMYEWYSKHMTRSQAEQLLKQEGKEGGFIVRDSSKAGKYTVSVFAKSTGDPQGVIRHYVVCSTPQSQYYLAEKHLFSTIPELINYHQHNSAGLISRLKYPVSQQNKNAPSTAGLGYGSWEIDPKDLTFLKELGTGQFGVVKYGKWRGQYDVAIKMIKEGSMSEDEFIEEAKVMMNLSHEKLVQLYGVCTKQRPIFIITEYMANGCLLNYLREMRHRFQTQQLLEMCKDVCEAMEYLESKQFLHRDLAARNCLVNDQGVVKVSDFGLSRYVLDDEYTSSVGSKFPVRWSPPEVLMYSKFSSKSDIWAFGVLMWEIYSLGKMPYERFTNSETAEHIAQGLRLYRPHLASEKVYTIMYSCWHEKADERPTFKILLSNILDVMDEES
Procedure: To assess the cellular efficacy of these compounds, we followed the inhibition of BTK autophosphorylation in Mino cells. After 1 h of pre-incubation with the inhibitors and B-cell activation with an anti-IgM antibody, BTK autophosphorylation was followed by Western blot.
The cell pellets were subjected to immunoblotting, and Western blots were performed for p-BTK, BTK, and β-actin.
Cell pellets were washed with ice-cold PBS and lysed using RIPA buffer (Sigma, R0278). […] Samples containing 50 μg total protein were prepared with 4× LDS sample buffer (NuPAGE, Thermo Scientific, NP0007) and 20 mM DTT, which were then resolved on a 4–20% Bis–Tris gel (GeneScript SurePAGE, M00657). […] An EZ-ECL Kit (Biological Industries, 20-500-1000) was used to detect HRP activity.

BTK [7] = biological target: T2, BTK; test: Cellular labeling profile of CoLDR probe in Mino cells, in-gel fluorescence; assay type: cell-based; design: endogenous in cells; host or cells: Mino cells; details: 2 h, 100 nM
Procedure: In addition to the in vitro labeling of BTK by our probe, we also tested its engagement in cells. […] The samples were imaged via gel fluorescence. […] We conducted this cellular labeling experiment at higher concentrations to assess the saturation of BTK binding (Figure S33B).
Precipitation: 1× chloroform, 4× methanol, and 3× water were added to the samples and vortexed thoroughly. The samples were spun down for 10 min at 4 °C, 21,000g. The top layer was aspirated, and the pellet was resuspended in 4× methanol. The sample was vortexed and spun down again for 10 min at 4 °C, 21,000g, the solution was removed, and the pellet was dried for 2 min. The pellet was dissolved in 42 μL of PBS followed by a 14 μL of 4× sample buffer.

Mino cells = test: In situ proteomic labeling with alkyne probes, in-gel fluorescence; assay type: cell-based; details: 2 h, TAMRA-azide CuAAC
Source text: To assess proteomic selectivity in cells, we have synthesized two sulfamate acetamides (2a and 2b) and a chloroacetamide (2c) with an alkyne functionality (Figure 2A and Figure S8). We treated Mino cells for two hours with either DMSO or 2a–2c. We then lysed the cells, labeled the alkynes via copper-catalyzed “click chemistry” (CuAAC) with TAMRA-azide, and imaged the adducts via in-gel fluorescence (Figure 2C). Similar to their reactivity pattern in the GSH reactivity assay, these compounds labeled various amounts of proteins under cellular conditions.
Mino cells were cultured in RPMI-medium supplemented with 15% FBS and 1% p/s at 37 °C and 5% CO2. […] The cells were lysed with RIPA buffer (Sigma, R0278), and protein concentration was determined using BCA protein assay (Thermo Fisher Scientific, 23225). Lysates were then diluted to 2 mg/mL in PBS. Lysates were clicked to TAMRA-azide (Lumiprobe). “Click” reaction was performed using a final concentration of 40 μM TAMRA-azide, 3 mM CuSO4, 3 mM Tris(3-hydroxypropyltriazolylmethyl)amine (THPTA, Sigma), and 3.7 mM Sodium L-ascorbate (Sigma) in a final volume of 60 μL. The samples were subjected to precipitation.
Precipitation: 1× chloroform, 4× methanol, and 3× water were added to the samples and vortexed thoroughly. The samples were spun down for 10 min at 4 °C, 21,000g. […]

[8] = Q13526_C113 (Pin1 Cys113), text: PATU-8988T cells

## CC(C)(C)CN(C(=O)CCl)C1CCS(=O)(=O)C1 (stereo not drawn) [sulfopin, reference compound]
Buffer stability assay; 200 μM, PBS buffer pH 8, 37 °C for four days
  hydrolysis (buffer stability, sulfopin analogues): 30%
Buffer stability assay; PBS buffer pH 8, 37 °C, after 2 days
  hydrolysis (buffer stability, sulfopin analogues): 30%
Pin1 [1]
  labeling of Pin1: 59%
Pin1 [2]
  Ki: 217 µM
PATU-8988T cells; P18031_C32, text: PATU-8988T cells
  isoDTB-ABPP H/L Ratio: 2.941
PATU-8988T cells; [8]
  isoDTB-ABPP H/L Ratio: 11.8257
[3]
  metabolic stability (in words): good metabolic stability

## CC(C)(C)CN(C(=O)COS(=O)(=O)Nc1ccccc1)C1CCS(=O)(=O)C1 (stereo not drawn) [4d]
[4]
  thiol reactivity compared to sulfopin: lower thiol reactivity than sulfopin
Pin1 [1]
  labeling of Pin1: > 90%
Pin1 [2]
  Ki: 43.6 µM
PATU-8988T cells; [8]
  isoDTB-ABPP H/L Ratio: 3.057
PATU-8988T cells; Q15149_C4494, text: PATU-8988T cells
  isoDTB-ABPP H/L Ratio: 2.693
[3]
  metabolic stability (in words): good metabolic stability

## C#CCOS(=O)(=O)N1CCC[C@@H](n2nc(-c3ccc(Oc4ccccc4)cc3)c3c(N)ncnc32)C1 [3j]
[5]
  reaction with GSH (in words): did not undergo any reaction with GSH
BTK [6]
  BTK autophosphorylation / activity after treatment (in words): BTK remained active
BTK [7]
  apparent off-targets that ibrutinib did not compete: three
BTK [7]; TAMRA-azide
  BTK labeling in cells (in words): showed BTK labeling

## C#Cc1ccc(NC(=O)CCl)cc1 [2c]
Mino cells
  proteins labeled under cellular conditions: labeled the highest number of proteins
